This note sets out measurements from patent US20260008856A1, “METHODS OF TREATING DISEASE USING ANTI-IL1RAP ANTIBODIES AND ANTIBODY DRUG CONJUGATES” (Bluefin Biomedicine, Inc., priority 2022, published 2026).

For assay [1], the system named is IL-6 secretion in human whole blood cultures stimulated with HKCA. In words: IL-6 production in human whole blood cultures stimulated with heat-killed Candida albicans. As to conditions: 24 hours, 1 μg/ml alone, combination 1 μg/ml BFB759 + 0.5 μg/ml adalimumab. It is filed as cell-based. The source says: Materials included Human peripheral blood drawn from 5 healthy donors. Materials also included Anti-human TNF alpha (Adalimumab Biosimilar), BioXCell cat #SIM0001, lot #8024221F1; Heat-killed Candida albicans (HKCA), InvivoGen cat #tlrl-hkca, lot #6292-44-02; RPMI 1640 with L-glutamine and HEPES, Corning cat #10-041-CM; and Human IL-6 DuoSet ELISA, R and D Systems cat #DY206-05. Blood was drawn into heparin tubes from healthy volunteers. Whole blood cultures comprised of whole blood diluted with plain RPMI 1640 medium were set up in sterile 5.0 ml polypropylene snap cap culture tubes. One of the following treatments were added for 1 hour prior to either being left unstimulated or receiving stimulation with 1.5×10^6 cells heat-killed Candida albicans: medium alone (cells alone), 1 μg/ml IgG1 isotype control antibody alone, 1 μg/ml BFB759 alone, 1 μg/ml adalimumab alone, or one of two combination treatments of 1 μg/ml IgG1 isotype control antibody+0.5 μg/ml adalimumab or 1 μg/ml BFB759+0.5 μg/ml adalimumab. The final volume of each culture was 1.0 ml. Cultures were incubated for 24 hours at 37° C./5% CO2. Supernatants harvested from each culture in duplicate were frozen at −80° C. until assayed in duplicate for IL-6 levels by ELISA.

The test system of assay [2] is normal human dermal fibroblasts (NHDF). In words: IL-6 and IL-8 production in NHDF stimulated with cytokine combo incl. TNF-α. It counts as cell-based. As to conditions: cytokine combo IL-1α/β, IL-36α/β/γ, antibodies 0-20 ug/ml, BFB759 0.5 ug/ml in combination. Here is the method:
(§1) Human NHDF cells were plated on 96-well, flat-bottom plates at 4,000 cells/well. […] For combination therapy, 0.5 ug/ml BFB759 was mixed with adalimumab or isotype control antibody at increasing concentrations (0-20 ug/ml, 5-fold dilution) and incubated with cells in duplicate for 45 minutes, prior to the addition of cytokine combo. The plates were then incubated overnight at 37° C., 5% CO2. 24 hours after treatment, supernatants were transferred and assayed for IL-6 and IL-8, as per manufacture's protocol (R&D Systems; Human IL-6 DuoSet ELISA, Human IL-8/CXCL8 DuoSet ELISA). The raw assay data were analyzed using GraphPad Prism 9 software to perform a non-linear regression.

For assay [3] the test system is unchanged. In words: IL-6 and IL-8 production in NHDF stimulated with cytokine combo incl. IL-17A. It counts as cell-based. The following applies: cytokine combo IL-1α/β, IL-36α/β/γ, antibodies 0-20 ug/ml, BFB759 0.5 ug/ml in combination. Here is the method: as §1, with “Secukinumab” for “adalimumab”, “Isotype” for “isotype”
For assay [4], the system named is TARC production in HDM stimulated human PBMCs. As to the kind of experiment: TARC production in HDM stimulated human PBMCs. It counts as cell-based. The text has this:
Materials included Human peripheral blood mononuclear cells (PBMCs) that were isolated from healthy donor blood and either frozen in liquid nitrogen and thawed prior to analysis or used fresh. Materials also included HDM (house dust mite extract) that was from Greer lab and purchased through Fisher Scientific (NC9756554, Lot #390844). Additionally, Human IL-4 (204-IL-010) was purchased from R&D Systems; Human IL-13 (200-13) was purchased from Peprotech; JAK inhibitors (JAKi) Abrocitinib (HY-107429) and Upadacitinib (HY-19569) were purchased from MedChemExpress; Dexamethasone (D4902) was purchased from Sigma-Aldrich; Dupilumab (HY-P9926) was purchased from MedChemExpress; Tralokinumab was produced by Bluefin Biomedicine according to the published protein sequence; and TARC ELISA kits (DuoSet Cat #DY364, Quantikine Cat #SDN00) were purchased from R&D Systems.
Blood was drawn in heparin tubes from healthy volunteers. PBMCs were isolated by centrifugation of the blood over Ficoll-Paque Plus density gradients using LeucoSep tubes.
(§2) 0.2 million PBMCs in 100 ul medium (RPMI1640, 10% heat-inactivated FBS) were added to each well of 96 well cell culture plate. BFB759 at multiple concentrations in 50 ul medium was added to the wells. The cells were incubated in the incubator for 45 min. Then, 50 ul HDM solution (final concentration 10 ug/ml) was added to the wells. After 7 days incubation, the supernatant was transferred to a new 96 well plate, and used in TARC ELISA right away, or frozen in −80 C freezer for ELISA later. For the combination studies of BFB759 with other drugs, the single agent or combination of drugs were added to the PBMCs, incubated for 45 min, then HDM solution, or HDM and IL-4 or IL-13 solution were added to the wells. The assay was incubated for 7 days, and the supernatant was harvested for TARC ELISA.

Assay [5] relates to TARC expression in PBMCs stimulated with HDM and IL-4. As to the kind of experiment: TARC in PBMCs treated by HDM and hIL-4. As to conditions: HDM 10 ug/ml, IL-4 750 ug/ml; three antibody concentrations. It is filed as cell-based, human. As for the experimental part:
as §2
Dupilumab is approved for treatment of AD (Atopic Dermatitis). It inhibits IL-4/13 signaling by blocking their binding to IL-4Ra. […] (FIG. 15)
In the data shown in FIG. 15, HDM was used at 10 ug/ml, IL-4 was used at […], antibodies were at three different concentrations as shown in the graph. Data shown are mean±s.d.

With adalimumab [reference compound], the “inhibition of IL-6 secretion” value in assay [1] is on record as “inhibit IL-6 secretion”. Moreover, in assay [2], the IL-6 production entry is “limited inhibition” and the IL-8 production result is “limited inhibition”.
As to “Secukinumab: anti-IL-17A antibody [reference compound]”, in assay [3], the IL-6 production entry is on record as “limited inhibition” and the IL-8 production result is “limited inhibition”.
As to “Dupilumab: approved for Atopic Dermatitis; inhibits IL-4/13 signaling by blocking their binding to IL-4Ra”, the “inhibition of TARC level” value in assay [4] (HDM stimulated PBMCs, same assay) was “does not inhibit TARC level significantly”. Moreover, the “inhibition of HDM induced TARC level, FIG. 13” value in assay [4] (antibodies 30 ug/ml, HDM 10 ug/ml) is listed as “does not or minimally inhibits”. Moreover, in assay [5], the “inhibition of TARC expression in the HDM and IL-4 model” value is listed as “partially inhibits”.
With `CCCS(=O)(=O)N[C@H]1C[C@@H](N(C)c2ncnc3[nH]ccc23)C1` [Abrocitinib], in assay [4] (HDM 10 ug/ml, JAKi and dexamethasone 0.1 nM, 10 nM, 1 uM, BFB759 1 ug/ml in combination), the “inhibition of TARC in HDM stimulated cells” value is given as “dose dependent inhibition”.
